Measurements reported in ChEMBL document CHEMBL3885881, “DrugMatrix”.

Species on record: Rattus norvegicus
Test: DrugMatrix - Regimen: Daily Repeat
Format: toxicity, organism-based, Sprague-Dawley
Set-up: regimen Daily Repeat, gender Male, age 6-8 weeks
Conditions: in vivo, po, route oral GAVAGE, vehicle 100 % WATER; for ABSOLUTE BASOPHIL / ABSOLUTE EOSINOPHIL / ABSOLUTE LYMPHOCYTE / ABSOLUTE MONOCYTE / ABSOLUTE SEGMENTED NEUTROPHIL / BASOPHIL / EOSINOPHIL / ERYTHROCYTE COUNT / HEMATOCRIT / HEMOGLOBIN / LEUKOCYTE COUNT / LYMPHOCYTE / MEAN CORPUSCULAR HEMOGLOBIN / MEAN CORPUSCULAR HEMOGLOBIN CONCENTRATION / MEAN CORPUSCULAR VOLUME / MONOCYTE / NEUTROPHIL / NUCLEATED RED BLOOD CELLS / PLATELET COUNT: tissue Blood; for ALANINE AMINOTRANSFERASE / ALBUMIN / ALKALINE PHOSPHATASE / ASPARTATE AMINOTRANSFERASE / BLOOD UREA NITROGEN / CARBON DIOXIDE / CHLORIDE / CHOLESTEROL / CREATINE PHOSPHOKINASE / CREATININE / GLUCOSE / LACTATE DEHYDROGENASE / LIPASE / PHOSPHORUS / POTASSIUM / SODIUM / TOTAL BILIRUBIN / TOTAL PROTEIN / URIC ACID: tissue Plasma
[1] = 0 mg/kg, 72 h, dose level Control, time 3 day
[2] = 0 mg/kg, 120 h, dose level Control, time 5 day
[3] = 0.07 mg/kg, 72 h, dose level Low, time 3 day

Cc1cc(C(C)(C)C)c(O)c(C)c1CC1=NCCN1 [OXYMETAZOLINE]
ABSOLUTE BASOPHIL [1]: 0 CELLS/uL
ABSOLUTE EOSINOPHIL [1]: 123.17 CELLS/uL
ABSOLUTE LYMPHOCYTE [1]: 12677.83 CELLS/uL
ABSOLUTE MONOCYTE [1]: 66.17 CELLS/uL
ABSOLUTE SEGMENTED NEUTROPHIL [1]: 1149.5 CELLS/uL
BASOPHIL [1]: 0%
EOSINOPHIL [1]: 0.83%
ERYTHROCYTE COUNT [1]: 5.26 x10E6/uL
HEMATOCRIT [1]: 33.07%
HEMOGLOBIN [1]: 13.43 G/DL
LEUKOCYTE COUNT [1]: 14.02 x10E3/uL
LYMPHOCYTE [1]: 90.17%
MEAN CORPUSCULAR HEMOGLOBIN [1]: 25.62 pg
MEAN CORPUSCULAR HEMOGLOBIN CONCENTRATION [1]: 40.65 G/DL
MEAN CORPUSCULAR VOLUME [1]: 63 fL
MONOCYTE [1]: 0.5%
NEUTROPHIL [1]: 8.5%
NUCLEATED RED BLOOD CELLS [1]: 0.17 /100WBC
PLATELET COUNT [1]: 1142.83 x10E3/uL
ALANINE AMINOTRANSFERASE [1]: 45.17 u/L
ALBUMIN [1]: 3.78 G/DL
ALKALINE PHOSPHATASE [1]: 340.17 u/L
ASPARTATE AMINOTRANSFERASE [1]: 77.33 u/L
BLOOD UREA NITROGEN [1]: 14.67 mg/dL
CARBON DIOXIDE [1]: 28.67 mmol/L
CHLORIDE [1]: 101.17 MEQ/L
CHOLESTEROL [1]: 77.67 mg/dL
CREATINE PHOSPHOKINASE [1]: 263.67 u/L
CREATININE [1]: 0.15 mg/dL
GLUCOSE [1]: 169.33 mg/dL
LACTATE DEHYDROGENASE [1]: 230 u/L
LIPASE [1]: 9.67 u/L
PHOSPHORUS [1]: 11.8 mg/dL
POTASSIUM [1]: 5.91 MEQ/L
SODIUM [1]: 142.88 MEQ/L
TOTAL BILIRUBIN [1]: 0.22 mg/dL
TOTAL PROTEIN [1]: 5.7 G/DL
URIC ACID [1]: 1.35 mg/dL
ABSOLUTE BASOPHIL [2]: 0 CELLS/uL
ABSOLUTE EOSINOPHIL [2]: 125 CELLS/uL
ABSOLUTE LYMPHOCYTE [2]: 13809 CELLS/uL
ABSOLUTE MONOCYTE [2]: 351 CELLS/uL
ABSOLUTE SEGMENTED NEUTROPHIL [2]: 1581.67 CELLS/uL
BASOPHIL [2]: 0%
EOSINOPHIL [2]: 0.67%
ERYTHROCYTE COUNT [2]: 5.53 x10E6/uL
HEMATOCRIT [2]: 34.83%
HEMOGLOBIN [2]: 13.9 G/DL
LEUKOCYTE COUNT [2]: 15.87 x10E3/uL
LYMPHOCYTE [2]: 87.5%
MEAN CORPUSCULAR HEMOGLOBIN [2]: 25.25 pg
MEAN CORPUSCULAR HEMOGLOBIN CONCENTRATION [2]: 40.08 G/DL
MEAN CORPUSCULAR VOLUME [2]: 63.05 fL
MONOCYTE [2]: 2.17%
NEUTROPHIL [2]: 9.67%
NUCLEATED RED BLOOD CELLS [2]: 0 /100WBC
PLATELET COUNT [2]: 1044 x10E3/uL
ALANINE AMINOTRANSFERASE [2]: 50.67 u/L
ALBUMIN [2]: 4.33 G/DL
ALKALINE PHOSPHATASE [2]: 395 u/L
ASPARTATE AMINOTRANSFERASE [2]: 86 u/L
BLOOD UREA NITROGEN [2]: 15.33 mg/dL
CARBON DIOXIDE [2]: 29.33 mmol/L
CHLORIDE [2]: 101.5 MEQ/L
CHOLESTEROL [2]: 71.33 mg/dL
CREATINE PHOSPHOKINASE [2]: 323.17 u/L
CREATININE [2]: 0.18 mg/dL
GLUCOSE [2]: 145.67 mg/dL
LACTATE DEHYDROGENASE [2]: 389.5 u/L
LIPASE [2]: 9.83 u/L
PHOSPHORUS [2]: 11.35 mg/dL
POTASSIUM [2]: 6.39 MEQ/L
SODIUM [2]: 142.77 MEQ/L
TOTAL BILIRUBIN [2]: 0.18 mg/dL
TOTAL PROTEIN [2]: 6.1 G/DL
URIC ACID [2]: 1.52 mg/dL
ABSOLUTE BASOPHIL [3]: 0 CELLS/uL
ABSOLUTE EOSINOPHIL [3]: 62.33 CELLS/uL
ABSOLUTE LYMPHOCYTE [3]: 13944.33 CELLS/uL
ABSOLUTE MONOCYTE [3]: 0 CELLS/uL
ABSOLUTE SEGMENTED NEUTROPHIL [3]: 1260 CELLS/uL
BASOPHIL [3]: 0%
EOSINOPHIL [3]: 0.33%
ERYTHROCYTE COUNT [3]: 5.43 x10E6/uL
HEMATOCRIT [3]: 34.37%
HEMOGLOBIN [3]: 13.87 G/DL
LEUKOCYTE COUNT [3]: 15.27 x10E3/uL
LYMPHOCYTE [3]: 91.67%
MEAN CORPUSCULAR HEMOGLOBIN [3]: 25.53 pg
MEAN CORPUSCULAR HEMOGLOBIN CONCENTRATION [3]: 40.33 G/DL
MEAN CORPUSCULAR VOLUME [3]: 63.33 fL
MONOCYTE [3]: 0%
NEUTROPHIL [3]: 8%
NUCLEATED RED BLOOD CELLS [3]: 0.33 /100WBC
PLATELET COUNT [3]: 1341.33 x10E3/uL
ALANINE AMINOTRANSFERASE [3]: 49.33 u/L
ALBUMIN [3]: 3.83 G/DL
ALKALINE PHOSPHATASE [3]: 309.33 u/L
ASPARTATE AMINOTRANSFERASE [3]: 74 u/L
BLOOD UREA NITROGEN [3]: 12.33 mg/dL
CARBON DIOXIDE [3]: 33.33 mmol/L
CHLORIDE [3]: 100.33 MEQ/L
CHOLESTEROL [3]: 68.67 mg/dL
CREATINE PHOSPHOKINASE [3]: 205.67 u/L
CREATININE [3]: 0.12 mg/dL
GLUCOSE [3]: 144.67 mg/dL
LACTATE DEHYDROGENASE [3]: 166.67 u/L
LIPASE [3]: 10 u/L
PHOSPHORUS [3]: 10.43 mg/dL
POTASSIUM [3]: 6.84 MEQ/L
SODIUM [3]: 142.8 MEQ/L
TOTAL BILIRUBIN [3]: 0.2 mg/dL
TOTAL PROTEIN [3]: 5.67 G/DL
URIC ACID [3]: 1.37 mg/dL
